# Columns and labels:
# PDE4A1 [1] = target: T1, PDE4A1 (Mus musculus, UniProt O89084); test: IC50 on PDE4A1; assay type: biochemical, murine; conditions: read-out: IC50, PDE 4A1
# T1 construct: targets used in the assays are full-length proteins (as opposed to simply the catalytic domain); expressed in transfected cells; host or cells: Schizosaccharomyces pombe, gene integrated at the cgs2 locus
# T1 sequence (O89084 1-610 isoform O89084-2): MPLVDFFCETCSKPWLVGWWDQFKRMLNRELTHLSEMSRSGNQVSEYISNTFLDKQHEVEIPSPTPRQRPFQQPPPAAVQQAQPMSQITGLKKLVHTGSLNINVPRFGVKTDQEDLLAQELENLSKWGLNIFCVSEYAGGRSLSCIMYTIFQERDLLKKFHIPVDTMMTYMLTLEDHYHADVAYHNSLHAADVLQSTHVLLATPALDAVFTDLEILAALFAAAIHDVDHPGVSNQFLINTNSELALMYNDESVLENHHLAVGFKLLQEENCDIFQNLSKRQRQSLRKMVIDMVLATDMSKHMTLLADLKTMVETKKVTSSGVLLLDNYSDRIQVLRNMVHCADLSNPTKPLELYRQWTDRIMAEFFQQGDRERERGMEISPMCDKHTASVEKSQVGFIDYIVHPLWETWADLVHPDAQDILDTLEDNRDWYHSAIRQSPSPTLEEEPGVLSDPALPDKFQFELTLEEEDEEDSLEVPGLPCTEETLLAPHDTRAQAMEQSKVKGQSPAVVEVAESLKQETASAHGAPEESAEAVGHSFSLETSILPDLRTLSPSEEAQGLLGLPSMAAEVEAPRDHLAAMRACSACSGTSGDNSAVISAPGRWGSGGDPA
# PDE4D3 [2] = target: T2, PDE4D3 (Homo sapiens, UniProt Q08499); test: IC50 on PDE4D3; assay type: biochemical; conditions: read-out: IC50, PDE 4D3
# T2 construct: targets used in the assays are full-length proteins (as opposed to simply the catalytic domain); expressed in transfected cells; host or cells: Schizosaccharomyces pombe, gene integrated at the cgs2 locus
# [3] = system: PDE4A, PDE4B, PDE4D, PDE7A; test: Overall PDE inhibitor profile from the yeast assays (table footnotes, summary); assay type: cell-based
# Summary of the method: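 Fission yeast strains expressing full-length PDEs with an fbp1-ura4 reporter, pregrown in EMM with 0–2.5 mM cAMP (or 0.5 or 1.0 mM cGMP), then grown 48 h at 30° C in 5FOA medium with 100 nl of compound pinned per well (10 mM stocks). Growth read as OD600; composite Z scores calculated.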
# PDE4A1 [4] = target: T1, PDE4A1; test: cAMP assay in yeast strain expressing PDE4A1; assay type: cell-based, murine
# PDE4D3 [5] = target: T2, PDE4D3; test: Fission yeast 5FOA growth assay, strain expressing PDE4D3; assay type: cell-based; conditions: 2 uM compound, 5FOA growth screen
# Procedure: Cells were pregrown in EMM medium [MP Biomedicals (Solon, OH), 3% glucose, filter-sterilized to avoid carmelization, which would introduce variability into the optical density of the medium] containing from 0 mM to 2.5 mM cAMP (or either 0.5 mM or 1.0 mM cGMP). This was to repress expression of the fbp1-ura4 reporter prior to exposure of cells to 5FOA medium. Cells were grown at 30° C. to exponential phase (approximately 10^7 cells/ml). Cells were collected by centrifugation and resuspended in 5FOA medium, and 25 μl were transferred to 384-well microtiter dishes (untreated, with flat clear bottoms) that had been pre-filled with 25 μl 5FOA medium and pre-pinned with 100 nl of compounds (stock solutions were generally 10 mM). Starting cell concentrations ranged from 0.5×10^5 to 4×10^5 cells/ml depending on the screening strain. […] Other positive control dishes contained 5 mM cAMP in the 5FOA medium for PDEs that lack appropriate control compounds. Cultures were grown for 48 hours at 30° C., sealed in an airtight container with moist paper towels to prevent evaporation. Optical densities (OD600) of cultures were measured using a microplate reader. Bioinformatic analysis of the results to determine composite Z scores was performed as previously described (1, 3).
# PDE4D3 [6] = target: T2, PDE4D3; test: cAMP assay in yeast strain expressing PDE4D3; assay type: cell-based
# PDE4B3 = target: T3, PDE4B3 (Mus musculus, UniProt Q8VBU5); test: cAMP assay in yeast strain expressing PDE4B3; assay type: cell-based, murine
# T3 construct: targets used in the assays are full-length proteins (as opposed to simply the catalytic domain); expressed in transfected cells; host or cells: Schizosaccharomyces pombe, gene integrated at the cgs2 locus
# T3 sequence (Q8VBU5 1-721): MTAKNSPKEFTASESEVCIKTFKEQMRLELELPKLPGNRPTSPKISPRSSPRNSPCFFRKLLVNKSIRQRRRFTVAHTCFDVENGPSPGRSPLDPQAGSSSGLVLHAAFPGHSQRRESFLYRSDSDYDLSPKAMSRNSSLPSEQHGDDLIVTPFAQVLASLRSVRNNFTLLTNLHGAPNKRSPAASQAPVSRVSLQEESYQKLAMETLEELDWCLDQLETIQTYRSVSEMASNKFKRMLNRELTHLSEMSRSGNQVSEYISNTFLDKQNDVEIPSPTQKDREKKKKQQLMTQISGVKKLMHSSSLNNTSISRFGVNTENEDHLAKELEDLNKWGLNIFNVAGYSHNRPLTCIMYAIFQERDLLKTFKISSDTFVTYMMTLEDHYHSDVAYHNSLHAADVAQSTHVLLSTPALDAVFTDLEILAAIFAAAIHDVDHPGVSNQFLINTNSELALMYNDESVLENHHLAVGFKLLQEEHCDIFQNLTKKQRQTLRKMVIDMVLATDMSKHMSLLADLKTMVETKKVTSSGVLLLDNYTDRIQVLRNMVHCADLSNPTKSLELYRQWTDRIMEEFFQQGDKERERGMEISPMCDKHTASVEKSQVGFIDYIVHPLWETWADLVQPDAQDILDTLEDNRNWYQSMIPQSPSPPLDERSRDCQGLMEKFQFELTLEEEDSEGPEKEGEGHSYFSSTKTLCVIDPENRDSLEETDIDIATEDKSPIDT
# PDE4D2 = target: T4, PDE4D2 (Homo sapiens, UniProt Q08499); test: cAMP assay in yeast strain expressing PDE4D2; assay type: cell-based
# T4 construct: targets used in the assays are full-length proteins (as opposed to simply the catalytic domain); expressed in transfected cells; host or cells: Schizosaccharomyces pombe
# T4 sequence (Q08499 303-809): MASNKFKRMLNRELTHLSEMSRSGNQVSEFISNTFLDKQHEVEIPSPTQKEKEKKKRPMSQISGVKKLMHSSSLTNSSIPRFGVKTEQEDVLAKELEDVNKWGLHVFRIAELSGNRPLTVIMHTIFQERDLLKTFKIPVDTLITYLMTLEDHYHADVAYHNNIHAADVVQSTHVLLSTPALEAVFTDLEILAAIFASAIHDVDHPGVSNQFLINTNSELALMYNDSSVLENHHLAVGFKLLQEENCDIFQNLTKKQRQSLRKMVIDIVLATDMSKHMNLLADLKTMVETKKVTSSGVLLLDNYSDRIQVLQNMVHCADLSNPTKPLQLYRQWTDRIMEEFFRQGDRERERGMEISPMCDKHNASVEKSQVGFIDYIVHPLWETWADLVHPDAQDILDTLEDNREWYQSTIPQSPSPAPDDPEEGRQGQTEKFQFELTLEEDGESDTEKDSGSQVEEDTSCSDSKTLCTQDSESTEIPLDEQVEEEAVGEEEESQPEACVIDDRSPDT
# T2 sequence (Q08499 1-673 isoform Q08499-2): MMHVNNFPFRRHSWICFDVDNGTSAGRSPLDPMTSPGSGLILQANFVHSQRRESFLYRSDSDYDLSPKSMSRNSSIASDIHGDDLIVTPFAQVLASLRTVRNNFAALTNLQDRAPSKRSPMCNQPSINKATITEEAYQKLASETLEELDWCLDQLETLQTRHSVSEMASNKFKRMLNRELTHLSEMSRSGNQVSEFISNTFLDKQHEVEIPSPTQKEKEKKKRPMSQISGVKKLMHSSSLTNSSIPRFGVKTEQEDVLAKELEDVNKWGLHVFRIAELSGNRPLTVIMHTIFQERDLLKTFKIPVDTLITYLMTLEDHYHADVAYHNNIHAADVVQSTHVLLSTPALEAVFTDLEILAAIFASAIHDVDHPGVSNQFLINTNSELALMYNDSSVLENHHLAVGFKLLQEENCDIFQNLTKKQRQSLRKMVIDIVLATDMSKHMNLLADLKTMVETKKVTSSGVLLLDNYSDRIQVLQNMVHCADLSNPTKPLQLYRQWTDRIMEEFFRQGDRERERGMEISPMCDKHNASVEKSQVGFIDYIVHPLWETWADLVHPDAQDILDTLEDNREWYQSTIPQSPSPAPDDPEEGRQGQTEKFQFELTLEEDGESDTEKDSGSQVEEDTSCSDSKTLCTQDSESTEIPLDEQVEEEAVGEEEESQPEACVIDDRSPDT
Structure (SMILES),IC50 (PDE4A1 [1]) [nM],IC50 (PDE4D3 [2]) [nM],PDE inhibitor profile in words (table footnote / summary) [3],"cAMP Response (% rolipram), PDE 4A1 (PDE4A1 [4]) [% rolipram]","2 Assay (2 uM), PDE 4D3 (PDE4D3 [5])","cAMP Response (% rolipram), PDE 4D3 (PDE4D3 [6]) [% rolipram]","cAMP Response (% rolipram), PDE 4B3 (PDE4B3) [% rolipram]","cAMP Response (% rolipram), PDE 4D2 (PDE4D2)"
Cc1ccc2c(c1)c1nc3ccccc3nc1n2C(C)C [Compound 41],650,200,–,–,–,–,–,–
"COC(=O)C1=C(C)N(c2ccccc2)/C(=C/c2cccs2)C1=O [2008, K19]",–,–,(1) No activity under conditions used,–,–,–,–,–
COC(=O)C1=C(C)N(C2CCCCC2)C(=O)/C1=C\c1cccs1 [Compound 22],–,–,"(4) Strong PDE4A, 4B, 7 inhibitor; Weak PDE4D inhibitor",54.00,42.32,12.00,51.00,ND ND ND 34.00 ND % rolipram
"COC(=O)C1=C(C)N(c2ccc(C(C)C)cc2)C(=O)/C1=C\c1cccs1 [2008, O19]",–,–,(1) No activity under conditions used,–,–,–,–,–
"COC(=O)C1=C(C)N(c2ccccc2F)C(=O)/C1=C\c1cccc(OC)c1O [2008, C21]",–,–,"(2) Strong PDE4A, 4B inhibitor",–,–,–,–,–
COC(=O)C1=C(C)N(c2ccccc2Cl)C(=O)/C1=C\c1cccs1 [Compound 27],100,100,"(3) Strong PDE4A, 4B inhibitor",78.00,0.00,8.00,71.00,ND ND ND 11.00 ND % rolipram
